pIC50: −log10 of the molar value. Read-outs that look alike come from different tables or passages of the source.
Experiments:
[1] = tested on: N87 (human gastric carcinoma derived from metastatic liver site); experiment: Cytotoxicity assay for payloads (MTS), N87 cells; assay type: cell-based; conditions: N87 cells, incubated with compounds for four days, MTS absorbance 490 nm, read-out: N87 IC50
Procedure: (§1) Cancer cell lines were obtained from ATCC (Manassas, Va.). N87 (human gastric carcinoma derived from metastatic liver site). HL60 (leukemia), A375 (melanoma) and HUVEC (human umbilical vein endothelial cells). were grown in RPMI 1640 media. All media were supplemented with 10% fetal bovine serum, 1% sodium pyruvate, and 1% L-glutamine (Invitrogen, Grand Island, N.Y.). Human umbilical vein endothelial cells (HUVEC) were obtained from Lonza (Allendale, N.J.) and maintained in EGM2 media supplemented with EGM-2 SingleQuots (Lonza # CC-4176). All cells were maintained in a humidified incubator (37° C., 5% CO2).
(§2) Cells in 100 μl medium were cultured in a 96-well plate. Cancer cell lines treated with the indicated compounds by adding 50 μl of 3× stocks in duplicate at 10 concentrations. Cells were incubated with compounds for four days, then 30 μl of CellTiter® 96 AQueous One MTS Solution (Promega Cat # G3582) was added to the cells, incubated 1.5 hr at 37° C., then absorbance measured at 490 nm on a Victor plate reader (Perkin Elmer, Waltham, Mass.). Relative cell viability was determined as a percentage of untreated control wells. IC50 values were calculated using four parameter logistic model #203 with XLfit v4.2 (IDBS, Guildford, Surry, UK).

HL60 (leukemia) = experiment: Cytotoxicity assay for payloads (MTS), HL-60 cells; assay type: cell-based; conditions: incubated with compounds for four days, MTS absorbance 490 nm
Procedure: as §1, §2

Compound | pIC50 ([1]; Homo sapiens, 96 h) | pIC50 (HL60 (leukemia); Homo sapiens, 96 h) | pIC50 [1] | pIC50 (HL60 (leukemia))
O=C([C@@H]1CCC[C@H](C(=O)N2C[C@@H](CCl)c3c2cc(O)c2ccccc32)C1)N1C[C@@H](CCl)c2c1cc(O)c1ccccc21 [Compound 16, (S)-((1R,3S)-cyclohexane-1,3-diyl)bis(((S)-1-(chloromethyl)-5-hydroxy-1H-benzo[e]indol-3(2H)-yl)methanone)] | 8.75 | 9.79 | – | –
O=C(c1cccc(C(=O)N2C[C@@H](CCl)c3c2cc(O)c2ccccc32)n1)N1C[C@@H](CCl)c2c1cc(O)c1ccccc21 [Compound 18, (S)-pyridine-2,6-diylbis(((S)-1-(chloromethyl)-5-hydroxy-1H-benzo[e]indol-3(2H)-yl)methanone)] | 6.76 | 8.66 | – | –
O=C(c1cccc(C(=O)N2C[C@@H](CCl)c3c2cc(O)c2ccccc32)c1)N1C[C@@H](CCl)c2c1cc(O)c1ccccc21 [Compound 20, (S)-1,3-phenylenebis(((S)-1-(chloromethyl)-5-hydroxy-1H-benzo[e]indol-3(2H)-yl)methanone)] | 6.53 | 8.79 | – | –
O=C(CCSCCC(=O)N1C[C@@H](CCl)c2c1cc(O)c1ccccc21)N1C[C@@H](CCl)c2c1cc(O)c1ccccc21 [Compound 23, (S)-3,3′-thiobis(1-((S)-1-(chloromethyl)-5-hydroxy-1H-benzo[e]indol-3(2H)-yl)propan-1-one)] | 9.60 | 10.14 | – | –
O=C(c1ccc(C(=O)N2C[C@@H](CCl)c3c2cc(O)c2ccccc32)s1)N1C[C@@H](CCl)c2c1cc(O)c1ccccc21 [Compound 29, (S)-thiophene-2,5-diylbis(((S)-1-(chloromethyl)-5-hydroxy-1H-benzo[e]indol-3(2H)-yl)methanone)] | 11.05 | > 12.00 | – | –
O=C(c1ccc(C(=O)N2C[C@@H](CCl)c3c2cc(O)c2ccccc32)[nH]1)N1C[C@@H](CCl)c2c1cc(O)c1ccccc21 [Compound 32, (S)-(1H-pyrrole-2,5-diyl)bis(((S)-1-(chloromethyl)-5-hydroxy-1H-benzo[e]indol-3(2H)-yl)methanone)] | 10.28 | 11.30 | – | –
NC(CC(=O)N1C[C@@H](CCl)c2c1cc(O)c1ccccc21)CC(=O)N1C[C@@H](CCl)c2c1cc(O)c1ccccc21 [Compound 40, 3-Amino-1,5-bis-((S)-1-chloromethyl-5-hydroxy-1,2-dihydro-enzo[e]indol-3-yl)-pentane-1,5-dione] | 8.73 | 9.75 | – | –
Nc1cccc(C(CC(=O)N2C[C@@H](CCl)c3c2cc(O)c2ccccc32)CC(=O)N2C[C@@H](CCl)c3c2cc(O)c2ccccc32)c1 [Compound 44, 3-(3-Amino-phenyl)-1,5-bis-((S)-1-chloromethyl-5-hydroxy-1,2-dihydro-benzo[e]indol-3-yl)-pentane-1,5-dione] | ≤ 8.00 | 8.28 | – | –
Nc1ccc(C(CC(=O)N2C[C@@H](CCl)c3c2cc(O)c2ccccc32)CC(=O)N2C[C@@H](CCl)c3c2cc(O)c2ccccc32)cc1 [Compound 48, 3-(4-Amino-phenyl)-1,5-bis-((S)-1-chloromethyl-5-hydroxy-1,2-dihydro-benzo[e]indol-3-yl)-pentane-1,5-dione] | 7.91 | 8.76 | – | –
Nc1ccc(CCC(=O)N(CC(=O)N2C[C@@H](CCl)c3c2cc(O)c2ccccc32)CC(=O)N2C[C@@H](CCl)c3c2cc(O)c2ccccc32)cc1 [Compound 56, 3-(4-Amino-phenyl)-N,N-bis-[2-((S)-1-chloromethyl-5-hydroxy-1,2-dihydro-benzo[e]indol-3-yl)-2-oxo-ethyl]-propionamide] | ≤ 7.00 | 8.16 | – | –
O=C(CCNC(=O)N1C[C@@H](CCl)c2c1cc(O)c1ccccc21)N1C[C@@H](CCl)c2c1cc(O)c1ccccc21 [Compound 65, (S)-1-Chloromethyl-5-hydroxy-1,2-dihydro-benzo[e]indole-3-carboxylic acid [3-((S)-1-chloromethyl-5-hydroxy-1,2-dihydro-benzo[e]indol-3-yl)-3-oxo-propyl]-amide] | 9.26 | 11.40 | – | –
CC(=O)Oc1cc2c(c3ccccc13)[C@H](CCl)CN2C(=O)c1cc(C(=O)N2C[C@@H](CCl)c3c2cc(OC(C)=O)c2ccccc32)n(C)n1 [Compound 74, acetic acid (S)-3-[5-((S)-5-acetoxy-1-chloromethyl-1,2-dihydro-benzo[e]indole-3-carbonyl)-1-methyl-1H-pyrazole-3-carbonyl]-1-chloromethyl-2,3-dihydro-1H-benzo[e]indol-5-yl ester] | 7.12 | 8.13 | – | –
CC(=O)Oc1cc2c(c3ccccc13)[C@H](CCl)CN2C(=O)C12CCC(C(=O)N3C[C@@H](CCl)c4c3cc(OC(C)=O)c3ccccc43)(CC1)N2 [Compound 79, 7-azabicyclo[2.2.1]heptane-1,4-diylbis[carbonyl(1S)-1-(chloromethyl)-1,2-dihydro-3H-benzo[e]indole-3,5-diyl]diacetate] | – | – | 8.10 | 9.30
CC(=O)Oc1cc2c(c3ccccc13)[C@H](CCl)CN2C(=O)C12CCC(C(=O)N3C[C@@H](CCl)c4c3cc(OC(C)=O)c3ccccc43)(C1)C2 [Compound 82, (1S,4S)-bicyclo[2.1.1]hexane-1,4-diylbis[carbonyl(1S)-1-(chloromethyl)-1,2-dihydro-3H-benzo[e]indole-3,5-diyl]diacetate] | 8.49 | 9.44 | – | –
CC(=O)Oc1cc2c(c3c(C)c[nH]c13)[C@H](CCl)CN2C(=O)C12CCC(C(=O)N3C[C@@H](CCl)c4c3cc(OC(C)=O)c3[nH]cc(C)c43)(CC1)CC2 [Compound 85, bicyclo[2.2.2]octane-1,4-diylbis[carbonyl(1S)-1-(chloromethyl)-8-methyl-1,6-dihydropyrrolo[3,2-e]indole-3,5(2H)-diyl]diacetate] | 10.28 | 11.30 | – | –
CC(=O)Oc1cc2c(c3c(C)c[nH]c13)[C@H](CCl)CN2C(=O)C12CCC(C(=O)N3C[C@@H](CCl)c4c3cc(OC(C)=O)c3[nH]cc(C)c43)(CC1)C2 [Compound 88, bicyclo[2.2.1]heptane-1,4-diylbis[carbonyl(1S)-1-(chloromethyl)-8-methyl-1,6-dihydropyrrolo[3,2-e]indole-3,5(2H)-diyl]diacetate] | 9.30 | 10.66 | – | –
CC(=O)Oc1cc2c(c3c(C)c[nH]c13)[C@H](CCl)CN2C(=O)C12CC(C(=O)N3C[C@@H](CCl)c4c3cc(OC(C)=O)c3[nH]cc(C)c43)(C1)C2 [Compound 91, bicyclo[1.1.1]pentane-1,3-diylbis[carbonyl(1S)-1-(chloromethyl)-8-methyl-1,6-dihydropyrrolo[3,2-e]indole-3,5(2H)-diyl]diacetate] | 10.24 | 11.40 | – | –
CC(=O)Oc1cc2c(c3c(C)c[nH]c13)[C@H](CCl)CN2C(=O)CC12CC(C(=O)N3C[C@@H](CCl)c4c3cc(OC(C)=O)c3[nH]cc(C)c43)(C1)C2 [Compound 97, (8S)-6-[(3-{[(1S)-5-(acetyloxy)-1-(chloromethyl)-8-methyl-1,6-dihydropyrrolo[3,2-e]indol-3(2H)-yl]carbonyl}bicyclo[1.1.1]pent-1-yl)acetyl]-8-(chloromethyl)-1-methyl-3,6,7,8-tetrahydropyrrolo[3,2-e]indol-4-yl acetate] | 9.65 | 11.05 | – | –
CC(=O)Nc1ccc2c(OC(C)=O)cc3c(c2c1)[C@@H](CCl)CN3C(=O)C12CC(C(=O)N3C[C@@H](CCl)c4c3cc(OC(C)=O)c3ccccc43)(C1)C2 [Compound 108, (1R)-8-(acetylamino)-3-[(3-{[(1S)-5-(acetyloxy)-1-(chloromethyl)-1,2-dihydro-3H-benzo[e]indol-3-yl]carbonyl}bicyclo[1.1.1]pent-1-yl)carbonyl]-1-(chloromethyl)-1,2-dihydro-3H-benzo[e]indol-5-yl acetate] | 8.40 | 9.37 | – | –
CC(=O)Nc1ccc2c(OC(C)=O)cc3c(c2c1)[C@H](CCl)CN3C(=O)C12CC(C(=O)N3C[C@@H](CCl)c4c3cc(OC(C)=O)c3ccccc43)(C1)C2 [Compound 109, (1S)-3-[(3-{[(1S)-8-(acetylamino)-5-(acetyloxy)-1-(chloromethyl)-1,2-dihydro-3H-benzo[e]indol-3-yl]carbonyl}bicyclo[1.1.1]pent-1-yl)carbonyl]-1-(chloromethyl)-2,3-dihydro-1H-benzo[e]indol-5-yl acetate] | 8.64 | 10.02 | – | –
CC(=O)Oc1cc2c(c3ccccc13)[C@H](CCl)CN2C(=O)c1ccc(C(=O)N2C[C@@H](CCl)c3c2cc(N)c2ccccc32)s1 [Compound 115, Acetic acid (S)-3-[5-((S)-5-amino-1-chloromethyl-1,2-dihydro-benzo[e]indole-3-carbonyl)-thiophene-2-carbonyl]-1-chloromethyl-2,3-dihydro-1H-benzo[e]indol-5-yl ester] | 8.84 | 10.82 | – | –
Nc1cc2c(c3ccccc13)[C@H](CCl)CN2C(=O)C12CC(C(=O)N3C[C@@H](CCl)c4c3cc(N)c3ccccc43)(C1)C2 [Compound 130, bicyclo[1.1.1]pentane-1,3-diylbis{[(1S)-5-amino-1-(chloromethyl)-1,2-dihydro-3H-benzo[e]indol-3-yl]methanone}] | 8.74 | 9.64 | – | –

Source: patent publication US10086085B2, “Bifunctional cytotoxic agents” (priority 2014, dated 2018)
